Reference: paper PMC4104174 (Journal of the American Chemical Society, 2014)
Where two headings read alike, the source gives them in different places.

What was measured:
[1] = free ligand acidity; cited from earlier work
[2] = molecular target: human carbonic anhydrase II (hCAII) (Homo sapiens, UniProt P00918); test: hCAII activity assay; format: biochemical
[3] = molecular target: hCAII; conditions: cited from earlier work

| Compound | Ki [2] [µM] | pKa [1] | further results |
| --- | --- | --- | --- |
| Oc1coccc1=S [TPMA, 3-hydroxy-4H-pyran-4-thione] | 1100 ± 200 |  |  |
| 2-mercaptopyridine-N-oxide [1,2-HOPTO] |  |  | Ki ([3]; previously reported): 850 µM |
| Oc1ccccc1S [2-MP, 2-mercaptophenol] |  |  | Ki [3]: 3 ± 0.7 µM |

Now from value to compound, other results behind:

| Ki [2] [µM] | Compound | pKa [1] | further results |
| --- | --- | --- | --- |
| 650 ± 60 | Cc1cc(=S)c(O)co1 [ATM, 5-hydroxy-2-methyl-4H-pyran-4-thione] | 7.64 | fold more potent (Ki) than TM and TPMA ([2]; ATM vs TM and TPMA, hCAII): roughly 2 fold |
| 1400 ± 200 | Cc1occc(=S)c1O [TM, 3-hydroxy-2-methyl-4H-pyran-4-thione] | 8.06 |  |
